ChEMBL document CHEMBL4828763, “Discovery of Potent and Selective CDK9 Degraders for Targeting Transcription Regulation in Triple-Negative Breast Cancer” (J Med Chem, 2021)
Activity calls are given as the source filed them. The rule behind the calls is not given here.

Assays:
[1] = test system: MDA-MB-468; assay: Growth inhibition of human MDA-MB-468 cells assessed as cell viability measured after 4 days by WST8 assay; assay type: functional, cell-based; settings: MDA-MB-468, 96 h
[2] = test system: BT-549; assay: Growth inhibition of human BT-549 cells assessed as cell viability measured after 4 days by WST8 assay; assay type: functional, cell-based; settings: BT-549, 96 h
[3] = test system: MDA-MB-231; assay: Growth inhibition of human MDA-MB-231 cells assessed as cell viability measured after 4 days by WST8 assay; assay type: functional, cell-based; settings: MDA-MB-231, 96 h
[4] = biological target: T1, Protein cereblon/Cyclin-dependent kinase 9 (Homo sapiens) (UniProt P50750+Q96SW2); assay: Protac activity at CRBN/CDK9 in human MDA-MB-231 cells assessed as induction of degradation of CDK9 at 500 nM incubated for 8 hrs by Western blot analysis; assay type: cell-based
T1 sequence (P50750 whole entry, looked up): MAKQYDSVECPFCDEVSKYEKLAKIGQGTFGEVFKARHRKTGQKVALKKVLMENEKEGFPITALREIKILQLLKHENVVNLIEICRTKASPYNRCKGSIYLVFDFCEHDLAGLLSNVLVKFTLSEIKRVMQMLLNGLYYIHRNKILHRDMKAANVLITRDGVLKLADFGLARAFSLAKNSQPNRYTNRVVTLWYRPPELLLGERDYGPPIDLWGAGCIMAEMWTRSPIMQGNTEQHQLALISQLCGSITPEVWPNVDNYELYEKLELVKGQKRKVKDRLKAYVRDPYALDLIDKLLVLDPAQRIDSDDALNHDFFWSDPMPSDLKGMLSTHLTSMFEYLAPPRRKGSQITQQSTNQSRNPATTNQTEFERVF
T1 sequence (Q96SW2 whole entry, looked up): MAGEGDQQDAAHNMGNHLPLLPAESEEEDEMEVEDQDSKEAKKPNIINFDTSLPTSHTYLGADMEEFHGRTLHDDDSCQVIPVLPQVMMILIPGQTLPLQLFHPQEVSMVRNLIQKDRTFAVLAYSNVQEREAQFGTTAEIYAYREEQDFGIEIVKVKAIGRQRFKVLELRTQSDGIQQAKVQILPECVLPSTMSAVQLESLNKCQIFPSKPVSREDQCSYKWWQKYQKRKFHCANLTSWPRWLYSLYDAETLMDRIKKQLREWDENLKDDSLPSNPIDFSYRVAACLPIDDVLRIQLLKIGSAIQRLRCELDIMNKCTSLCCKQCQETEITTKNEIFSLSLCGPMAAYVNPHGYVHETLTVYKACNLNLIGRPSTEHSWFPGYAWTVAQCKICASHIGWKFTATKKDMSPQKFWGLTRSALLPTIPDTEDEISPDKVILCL

[5] = biological target: T1, Protein cereblon/Cyclin-dependent kinase 9 (Homo sapiens); assay: Protac activity at CRBN/CDK9 in human MDA-MB-231 cells assessed as induction of degradation of CDK9 at 500 nM measured after 2 hrs by Western blot analysis; assay type: cell-based
[6] = biological target: T1, Protein cereblon/Cyclin-dependent kinase 9 (Homo sapiens); assay: Protac activity at CRBN/CDK9 in human MDA-MB-231 cells assessed as induction of degradation of CDK9 measured after 4 to 8 hrs by Western blot analysis; assay type: cell-based; settings: dose 0.01-2.5 µM, time 4-8 hrs
[7] = biological target: T1, Protein cereblon/Cyclin-dependent kinase 9 (Homo sapiens); assay: Protac activity at CRBN/CDK9 in human MDA-MB-231 cells assessed as induction of degradation of CDK9 pretreated with compound 44 at 500 nM incubated for 8 hrs by Western blot analysis; assay type: cell-based
[8] = biological target: T1, Protein cereblon/Cyclin-dependent kinase 9 (Homo sapiens); assay: Protac activity at CRBN/CDK9 in human MDA-MB-231 cells assessed as induction of degradation of CDK9 pretreated with thalidomide at 500 nM incubated for 8 hrs by Western blot analysis; assay type: cell-based
[9] = biological target: T1, Protein cereblon/Cyclin-dependent kinase 9 (Homo sapiens); assay: Protac activity at CRBN/CDK9 in human MDA-MB-231 cells assessed as induction of degradation of CDK9 pretreated with PR171 at 500 nM incubated for 8 hrs by Western blot analysis; assay type: cell-based
[10] = biological target: T1, Protein cereblon/Cyclin-dependent kinase 9 (Homo sapiens); assay: Protac activity at CRBN/CDK9 in human MDA-MB-231 cells assessed as induction of degradation of CDK9 pretreated with MLN4924 at 500 nM incubated for 8 hrs by Western blot analysis; assay type: cell-based
[11] = biological target: Protein cereblon/Cyclin-dependent kinase 1 (Homo sapiens) (UniProt P06493+Q96SW2); assay: Protac activity at CRBN/CDK1 in human MDA-MB-231 cells assessed as induction of degradation of CDK1 at 0.01 to 2.5 uM incubated for 4 to 8 hrs by Western blot analysis; assay type: cell-based; settings: dose 0.01-2.5 µM, time 4-8 hrs
Chain of Protein cereblon/Cyclin-dependent kinase 1 (Homo sapiens) (P06493 whole entry, looked up): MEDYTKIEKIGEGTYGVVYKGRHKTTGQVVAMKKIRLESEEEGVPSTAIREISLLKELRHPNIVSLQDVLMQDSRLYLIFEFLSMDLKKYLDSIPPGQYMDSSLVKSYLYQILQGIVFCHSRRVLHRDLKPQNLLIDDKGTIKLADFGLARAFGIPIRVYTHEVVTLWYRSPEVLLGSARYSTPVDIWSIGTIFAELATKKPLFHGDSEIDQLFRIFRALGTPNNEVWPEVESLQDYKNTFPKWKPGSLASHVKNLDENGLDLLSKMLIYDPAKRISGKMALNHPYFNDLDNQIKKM
Chain of Protein cereblon/Cyclin-dependent kinase 1 (Homo sapiens) (Q96SW2 whole entry, looked up): as the sequence (Q96SW2 whole entry, looked up) above

[12] = biological target: Protein cereblon/Cyclin-dependent kinase 2 (Homo sapiens) (UniProt P24941+Q96SW2); assay: Protac activity at CRBN/CDK2 in human MDA-MB-231 cells assessed as induction of degradation of CDK2 at 0.01 to 2.5 uM incubated for 4 to 8 hrs by Western blot analysis; assay type: cell-based; settings: dose 0.01-2.5 µM, time 4-8 hrs
[13] = biological target: Protein cereblon/Cyclin-dependent kinase 4 (Homo sapiens) (UniProt P11802+Q96SW2); assay: Protac activity at CRBN/CDK4 in human MDA-MB-231 cells assessed as induction of degradation of CDK4 at 0.01 to 2.5 uM incubated for 4 to 8 hrs by Western blot analysis; assay type: cell-based; settings: dose 0.01-2.5 µM, time 4-8 hrs
Chain of Protein cereblon/Cyclin-dependent kinase 4 (Homo sapiens) (P11802 2-303 limits assumed): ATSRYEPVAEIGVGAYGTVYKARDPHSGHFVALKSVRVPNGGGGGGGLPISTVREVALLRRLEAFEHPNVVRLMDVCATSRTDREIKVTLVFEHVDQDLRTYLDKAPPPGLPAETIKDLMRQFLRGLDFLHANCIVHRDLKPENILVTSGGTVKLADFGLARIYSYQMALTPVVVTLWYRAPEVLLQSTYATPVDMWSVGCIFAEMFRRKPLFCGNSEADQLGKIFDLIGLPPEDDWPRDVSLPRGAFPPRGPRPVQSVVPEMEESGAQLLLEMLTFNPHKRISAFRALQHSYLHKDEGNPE
Chain of Protein cereblon/Cyclin-dependent kinase 4 (Homo sapiens) (Q96SW2 whole entry partner): as the sequence (Q96SW2 whole entry, looked up) above

[14] = biological target: Protein cereblon/Cyclin-dependent kinase 5 (Homo sapiens) (UniProt Q00535+Q96SW2); assay: Protac activity at CRBN/CDK5 in human MDA-MB-231 cells assessed as induction of degradation of CDK5 at 0.01 to 2.5 uM incubated for 4 to 8 hrs by Western blot analysis; assay type: cell-based; settings: dose 0.01-2.5 µM, time 4-8 hrs
Chain of Protein cereblon/Cyclin-dependent kinase 5 (Homo sapiens) (Q00535 whole entry, looked up): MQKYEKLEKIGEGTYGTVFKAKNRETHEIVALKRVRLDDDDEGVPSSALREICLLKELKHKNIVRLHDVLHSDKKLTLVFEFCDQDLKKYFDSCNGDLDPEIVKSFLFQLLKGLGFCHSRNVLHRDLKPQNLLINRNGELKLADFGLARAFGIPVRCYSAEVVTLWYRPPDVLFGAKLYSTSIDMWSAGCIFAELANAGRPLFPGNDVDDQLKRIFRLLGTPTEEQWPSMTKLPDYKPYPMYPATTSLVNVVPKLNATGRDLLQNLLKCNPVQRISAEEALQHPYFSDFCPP
Chain of Protein cereblon/Cyclin-dependent kinase 5 (Homo sapiens) (Q96SW2 whole entry, looked up): as the sequence (Q96SW2 whole entry, looked up) above

[15] = biological target: Protein cereblon/Cyclin-dependent kinase 6 (Homo sapiens) (UniProt Q00534+Q96SW2); assay: Protac activity at CRBN/CDK6 in human MDA-MB-231 cells assessed as induction of degradation of CDK6 at 0.01 to 2.5 uM incubated for 4 to 8 hrs by Western blot analysis; assay type: cell-based; settings: dose 0.01-2.5 µM, time 4-8 hrs
Chain of Protein cereblon/Cyclin-dependent kinase 6 (Homo sapiens) (Q00534 whole entry, looked up): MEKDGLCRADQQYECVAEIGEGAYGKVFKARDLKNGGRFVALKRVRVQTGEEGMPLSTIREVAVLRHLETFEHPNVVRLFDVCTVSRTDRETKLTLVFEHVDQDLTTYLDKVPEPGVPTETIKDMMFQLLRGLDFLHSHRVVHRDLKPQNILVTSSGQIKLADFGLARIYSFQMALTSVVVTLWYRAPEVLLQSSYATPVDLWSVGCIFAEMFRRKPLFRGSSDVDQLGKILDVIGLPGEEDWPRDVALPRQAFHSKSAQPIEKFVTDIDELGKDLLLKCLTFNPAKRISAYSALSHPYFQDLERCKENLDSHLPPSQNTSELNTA
Chain of Protein cereblon/Cyclin-dependent kinase 6 (Homo sapiens) (Q96SW2 whole entry, looked up): as the sequence (Q96SW2 whole entry, looked up) above

[16] = biological target: Protein cereblon/Cyclin-dependent kinase 7 (Homo sapiens) (UniProt P50613+Q96SW2); assay: Protac activity at CRBN/CDK7 in human MDA-MB-231 cells assessed as induction of degradation of CDK7 at 0.01 to 2.5 uM incubated for 4 to 8 hrs by Western blot analysis; assay type: cell-based; settings: dose 0.01-2.5 µM, time 4-8 hrs
Chain of Protein cereblon/Cyclin-dependent kinase 7 (Homo sapiens) (P50613 whole entry, looked up): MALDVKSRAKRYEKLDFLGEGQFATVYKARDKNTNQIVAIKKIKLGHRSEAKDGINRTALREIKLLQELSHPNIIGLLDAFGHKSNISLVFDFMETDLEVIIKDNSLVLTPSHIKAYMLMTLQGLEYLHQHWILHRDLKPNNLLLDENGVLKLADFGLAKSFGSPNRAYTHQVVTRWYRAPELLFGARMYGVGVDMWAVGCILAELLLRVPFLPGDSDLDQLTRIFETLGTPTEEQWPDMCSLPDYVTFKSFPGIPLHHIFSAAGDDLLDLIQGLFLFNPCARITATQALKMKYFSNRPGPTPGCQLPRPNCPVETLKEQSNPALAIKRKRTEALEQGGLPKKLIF
Chain of Protein cereblon/Cyclin-dependent kinase 7 (Homo sapiens) (Q96SW2 whole entry, looked up): as the sequence (Q96SW2 whole entry, looked up) above

[17] = test system: MDA-MB-231; assay: Downregulation of CDK9 mRNA expression in human MDA-MB-231 cells at 0.5 uM incubated for 4 hrs by RNA-seq analysis; assay type: functional, cell-based
[18] = Downregulation of MCL1 gene expression in human MDA-MB-231 cells at 0.5 uM incubated for 4 hrs by quantitative RT-PCR based gene set enrichment analysis relative to control; assay type: functional
[19] = Downregulation of MYC gene expression in human MDA-MB-231 cells at 0.5 uM incubated for 4 hrs by quantitative RT-PCR based gene set enrichment analysis relative to control; assay type: functional
[20] = test system: MDA-MB-231; assay: Induction of apoptosis in human MDA-MB-231 cells assessed as apoptotic cells at 10 nM incubated for 48 hrs by Annexin V-FITC/PI analysis (reference value: 4.85%); assay type: functional
[21] = test system: MDA-MB-231; assay: Induction of apoptosis in human MDA-MB-231 cells assessed as apoptotic cells at 100 nM incubated for 48 hrs by Annexin V-FITC/PI analysis (reference value: 4.85%); assay type: functional
[22] = test system: MDA-MB-231; assay: Induction of apoptosis in human MDA-MB-231 cells assessed as apoptotic cells at 500 nM incubated for 48 hrs by Annexin V-FITC/PI analysis (reference value: 4.85%); assay type: functional
[23] = Solubility of the compound; assay type: physicochemical
[24] = biological target: Protein cereblon/Eukaryotic peptide chain release factor GTP-binding subunit ERF3A (Homo sapiens) (UniProt Q96SW2+P15170); assay: Protac activity at CRBN/GSPT1 in human MDA-MB-231 cells assessed as induction of degradation of GSPT1 incubated for 4 to 8 hrs by Western blot analysis; assay type: cell-based; settings: time 4-8 hrs
Chain of Protein cereblon/Eukaryotic peptide chain release factor GTP-binding subunit ERF3A (Homo sapiens) (P15170 whole entry, looked up): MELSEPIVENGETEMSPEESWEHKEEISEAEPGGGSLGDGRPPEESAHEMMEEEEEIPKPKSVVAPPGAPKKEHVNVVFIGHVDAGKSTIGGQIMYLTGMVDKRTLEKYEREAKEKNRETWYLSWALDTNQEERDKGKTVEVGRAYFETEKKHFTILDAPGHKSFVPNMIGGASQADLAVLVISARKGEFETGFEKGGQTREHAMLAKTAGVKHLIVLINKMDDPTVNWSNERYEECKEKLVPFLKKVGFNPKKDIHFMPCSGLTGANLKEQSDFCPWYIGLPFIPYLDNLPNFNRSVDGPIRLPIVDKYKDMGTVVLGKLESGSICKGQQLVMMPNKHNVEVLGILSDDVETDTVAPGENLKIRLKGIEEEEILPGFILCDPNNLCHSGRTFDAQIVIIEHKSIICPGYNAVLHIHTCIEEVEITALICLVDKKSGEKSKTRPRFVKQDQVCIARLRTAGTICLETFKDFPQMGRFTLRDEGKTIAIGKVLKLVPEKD
Chain of Protein cereblon/Eukaryotic peptide chain release factor GTP-binding subunit ERF3A (Homo sapiens) (Q96SW2 whole entry, looked up): as the sequence (Q96SW2 whole entry, looked up) above

[25] = test system: Tumour; assay: Induction of CDK9 degradation in tumor of human MDA-MB-231 cells xenografted in BALB/c mouse model at 0.15 mM intratumoral injection measured after 16 hrs by Western blot analysis relative to control; assay type: functional, Neoplasm
[26] = test system: Tumour; assay: Induction of CDK7 degradation in tumor of human MDA-MB-231 cells xenografted in BALB/c mouse model at 0.15 mM intratumoral injection measured after 16 hrs by Western blot analysis relative to control; assay type: functional, tissue-based; settings: Neoplasm

## CC(C)c1cnn2c(NCc3ccc(NC(=O)CCCCCCCOc4cccc5c4C(=O)N(C4CCC(=O)NC4=O)C5=O)cc3)nc(OC3CCN(C)CC3)nc12 (centres undefined)
[1]
  IC50: 0.066 µM
[2]
  IC50: 0.048 µM
[3]
  IC50: 0.051 µM
[4]
  Activity: Active
[5]
  Activity: 100%
[6]
  Activity: Dose-Dependent Effect
[7]
  Activity: inactive
[8]
  Activity: inactive
[9]
  Activity: inactive
[10]
  Activity: inactive
[11]
  Activity: inactive
[12]
  Activity: inactive
[13]
  Activity: inactive
[14]
  Activity: inactive
[15]
  Activity: inactive
[16]
  Activity: inactive
[17]
  Activity: inactive
[18]
  inhibition at 0.5 µM: 59.6%
[19]
  inhibition at 0.5 µM: 75.3%
[20]
  Activity: 6.39%
[21]
  Activity: 10.48%
[22]
  Activity: 26.49%
[23]
  solubility: Insoluble
[24]
  Activity: inactive
[25]
  Activity: 26%
[26]
  Activity: inactive

## CC(C)c1cnn2c(NCc3ccc(NC(=O)CCCCCCCCCOc4cccc5c4CN(C4CCC(=O)NC4=O)C5=O)cc3)nc(OC3CCN(C)CC3)nc12 (centres undefined)
[1]
  IC50: 0.184 µM
[2]
  IC50: 0.035 µM
[3]
  IC50: 0.137 µM
[4]
  Activity: Active

## CC(C)c1cnn2c(NCc3ccc(NC(=O)CCCCCCCCOc4cccc5c4C(=O)N(C4CCC(=O)NC4=O)C5=O)cc3)nc(OC3CCN(C)CC3)nc12 (centres undefined)
[1]
  IC50: 0.12 µM
[2]
  IC50: 0.12 µM
[3]
  IC50: 0.13 µM
[4]
  Activity: Active

## CC(C)c1cnn2c(NCc3ccc(NC(=O)CCCCCCOc4cccc5c4C(=O)N(C4CCC(=O)NC4=O)C5=O)cc3)nc(OC3CCN(C)CC3)nc12 (centres undefined)
[1]
  IC50: 0.18 µM
[2]
  IC50: 0.17 µM
[3]
  IC50: 0.26 µM
[4]
  Activity: Active

## CC(C)c1cnn2c(NCc3ccc(NC(=O)CCCCCCOc4cccc5c4CN(C4CCC(=O)NC4=O)C5=O)cc3)nc(OC3CCN(C)CC3)nc12 (centres undefined)
[1]
  IC50: 0.53 µM
[2]
  IC50: 0.47 µM
[3]
  IC50: 0.39 µM
[4]
  Activity: Active

## CC(C)c1cnn2c(NCc3ccc(NC(=O)CCCCCCCCOc4cccc5c4CN(C4CCC(=O)NC4=O)C5=O)cc3)nc(OC3CCN(C)CC3)nc12 (centres undefined)
[1]
  IC50: 0.3 µM
[2]
  IC50: 0.2 µM
[3]
  IC50: 0.17 µM
[4]
  Activity: Active

## CC(C)c1cnn2c(NCc3ccc(NC(=O)CCCCCCCOc4cccc5c4CN(C4CCC(=O)NC4=O)C5=O)cc3)nc(OC3CCN(C)CC3)nc12 (centres undefined)
[1]
  IC50: 0.104 µM
[2]
  IC50: 0.04 µM
[3]
  IC50: 0.072 µM
[4]
  Activity: Active

## CC(C)c1cnn2c(NCc3ccc(NC(=O)CCCCCCc4cccc5c4CN(C4CCC(=O)NC4=O)C5=O)cc3)nc(OC3CCN(C)CC3)nc12 (centres undefined)
[1]
  IC50: 0.13 µM
[2]
  IC50: 0.23 µM
[3]
  IC50: 0.2 µM
[4]
  Activity: Active
